# Measurements from patent US12721838B2 (Henry Ford Health System, priority 2020, dated 2026).
# Tests used:
# [1] = cited from earlier work
# [2] = test system: pAkt, Bcl-xL, Survivin, and FOXO3; test: Western blot of TRIB2 downstream targets in LNCaP-ENR cells; format: cell-based, human; conditions: 12 μM, 24 hours
# Method: (§1) LNCaP-ENR cells were treated with varying doses (4 μM, 8 μM, or 12 μM) of DCV for 24 hours. Effects on TRIB2 protein levels and its downstream targets (e.g., pAkt, Bcl-xL, Survivin, and FOXO3) were analyzed by Western blot. GAPDH was used as loading control. Protein levels of TRIB2, pAKT (S473), Bcl-xL, and Survivin were reduced in cells treated with 12 μM of DCV compared to control-treated cells (FIG. 3A). Levels of FOXO3 protein were increased at 12 μM of DCV treatment compared to control treatment. This was expected, as FOXO3 level is known to be decreased by Trib2. These effects on cellular protein levels were DCV concentration-dependent, with the most pronounced effects observed at the highest concentration tested (12 μM).
# TRIB2 = molecular target: T1, TRIB2 (Homo sapiens, UniProt Q92519); test: Western blot of TRIB2 protein levels in cancer cells; format: cell-based; parameters: Whole cell lysate proteins were analyzed by Western blot; endogenous in cells; host or cells: LNCaP-ENR (enzalutamide-resistant LNCaP) cells; conditions: for TRIB2 protein levels: LNCaP-ENR cells, 24 hours
# T1 sequence (Q92519 1-343): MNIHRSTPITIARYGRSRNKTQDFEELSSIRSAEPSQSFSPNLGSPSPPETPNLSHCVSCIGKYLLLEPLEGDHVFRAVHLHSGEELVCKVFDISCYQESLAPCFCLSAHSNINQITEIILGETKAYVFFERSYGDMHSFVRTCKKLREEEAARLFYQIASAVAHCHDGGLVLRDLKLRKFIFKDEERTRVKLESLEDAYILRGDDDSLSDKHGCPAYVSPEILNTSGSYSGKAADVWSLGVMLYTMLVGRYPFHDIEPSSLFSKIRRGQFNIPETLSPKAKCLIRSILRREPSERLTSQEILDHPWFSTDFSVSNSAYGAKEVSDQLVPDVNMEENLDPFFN
# Method: Enzalutamide-resistant prostate cancer (ERPC) cells (LNCaP-ENR cells) were plated and treated with 10 μM each of various compounds for 24 hours. Exemplary methods for developing and using LNCaP-ENR cells is disclosed in Monga, J., Subramani, D., Bharathan, A., and Ghosh, J. (2020) “Pharmacological and genetic targeting of 5-lipoxygenase interrupts c-Myc oncogenic signaling and kills enzalutamide-resistant prostate cancer cells via apoptosis.” Scientific Reports 10: 6649, the disclosure of which is incorporated herein by reference in its entirety. Whole cell lysate proteins were analyzed by Western blot. TRIB2 antibody was used to detect protein levels of TRIB2 and GAPDH was used as loading control. Monoclonal anti-Trib2 antibody was purchased from Santa Cruz Biotech, Santa Cruz, CA.
# as §1
# [3] = in vivo; cited from earlier work
# [4] = test system: ERPC tumors (LNCaP-ENR cells)
# Method: BALB/c nude mice were subcutaneously injected with the LNCaP-ENR cells (1×10^6 cells per mouse) to develop tumors. Once the tumors reached a size of ~100 cubic mm, the mice were treated with 30 mg/kg/day DCV or a solution of DMSO:cremophor:PBS at 1:1:8 ratio, orally for four weeks (n=3). Tumor size and body weights were measured once per week. Tumor volumes were calculated using the following formula:
# [formula] • Wherein “TV” means tumor volume; • “a” is the long diameter of a tumor; and • “b” is the short diameter of a tumor.
# Tumor samples were collected at 4 weeks post-treatment, and TRIB2 protein levels in the tumors were determined by immunohistochemistry (IHC) using monoclonal anti-Trib2 antibody (Santa Cruz Bio, Santa Cruz, CA; Cat. No.: 100878) at 1:100.
# c-JNK, caspase 3 = test: Activation of c-JNK and caspase 3; format: cell-based, human; conditions: LNCaP-ENR cells
# Method: To explore the underlying mechanism of DCV-induced apoptosis in ERPC cells, the effect of DCV on Jun N-terminal kinases (JNKs) was analyzed. JNKs play a critical role in apoptotic pathways. […] Both caspase-dependent and caspase-independent apoptotic cell death processes are known.
# pure Trib2 protein = molecular target: T2, pure Trib2 protein (Homo sapiens, UniProt Q92519); test: Thermal shift assay by Differential Scanning Spectro-fluorometry; format: binding; conditions: decreased from 41° C. (DMSO only)
# T2 sequence (Q92519 1-343): T1 sequence (Q92519 1-343)
# Excerpt: FIG. 8 depicts a graph showing the results of a thermal shift assay of pure Trib2 protein by Differential Scanning Spectro-fluorometry.
# [5] = molecular target: T3, Trib2-Luciferase (Luc-Trib2) fusion (Homo sapiens, UniProt Q92519); test: cell-based; conditions: HFF
# T3 sequence (Q92519 with tags, fused parts or gaps): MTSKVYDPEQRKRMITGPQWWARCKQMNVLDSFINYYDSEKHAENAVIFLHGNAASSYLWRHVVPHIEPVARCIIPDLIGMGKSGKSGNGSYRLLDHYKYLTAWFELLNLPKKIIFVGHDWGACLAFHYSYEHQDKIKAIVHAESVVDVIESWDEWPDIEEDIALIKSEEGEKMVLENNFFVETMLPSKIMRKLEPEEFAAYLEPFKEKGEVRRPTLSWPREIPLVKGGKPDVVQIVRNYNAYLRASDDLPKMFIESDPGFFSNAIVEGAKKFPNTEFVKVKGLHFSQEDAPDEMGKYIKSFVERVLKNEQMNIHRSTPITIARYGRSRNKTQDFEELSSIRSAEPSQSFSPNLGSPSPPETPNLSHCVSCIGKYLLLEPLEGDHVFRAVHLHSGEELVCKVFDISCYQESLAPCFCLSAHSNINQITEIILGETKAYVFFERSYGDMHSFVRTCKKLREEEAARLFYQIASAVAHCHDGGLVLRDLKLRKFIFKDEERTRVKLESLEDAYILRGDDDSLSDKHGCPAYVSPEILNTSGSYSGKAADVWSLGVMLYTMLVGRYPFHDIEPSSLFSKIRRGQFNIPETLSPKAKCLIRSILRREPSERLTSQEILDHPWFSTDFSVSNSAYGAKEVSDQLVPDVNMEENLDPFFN
# LNCaP-ENR cells = test: MTS/PES cell viability assay, ERPC cells; format: cell-based, human
# Method: Plates were incubated for 72 hours at 37° C. in a CO2 incubator. Cell viability was measured by MTS/PES cell titer assay (Promega Corp., Madison, WI).
compound,measurement,setting,value
"COC(=O)N[C@H](C(=O)N1CCC[C@H]1c1nc(-c2ccc(-c3ccc(-c4c[nH]c([C@@H]5CCCN5C(=O)[C@@H](NC(=O)OC)C(C)C)n4)cc3)cc2)c[nH]1)C(C)C [Daclatasvir, 4,4′-bis[2-((2S)-1-{(2S)-2-[(methoxycarbonyl)amino]-3-methylbutanoyl}-2-pyrrolidinyl)-1H-imidazol-4-yl]-1,1′-biphenyl]",solubility in aqueous solvents,[1],freely soluble
same,Levels of FOXO3 protein,[2]; vs control treatment,increased
same,"Protein levels of pAKT (S473), Bcl-xL, and Survivin",[2]; vs control-treated cells,reduced
same,TRIB2 protein levels,"TRIB2; 10 μM, Western blot",downregulated
same,TRIB2 protein levels,"TRIB2; 12 μM, vs control-treated cells",reduced
same,Trib2 protein level,"TRIB2; range of aggressive cancer cell lines, including prostate, lung, and kidney",downregulates
same,maximum tolerated dose (MTD),[3],> 200 mg/kg/day
same,Tumor volumes,"[4]; 30 mg/kg/day orally for four weeks, vs vehicle-treated animals",significantly reduced
same,TRIB2 protein levels in tumors by IHC,"[4]; 30 mg/kg/day orally, 4 weeks",reduced
same,activation of caspase 3,"c-JNK, caspase 3",induces activation
same,activation of c-JNK,"c-JNK, caspase 3; dose-dependent",rapid and robust activation
same,Tm of Trib2 protein in presence of DCV,pure Trib2 protein,37 °C
same,activity at 10 µM,[5]; read-out: Luciferase activity (%),28%
same,inhibition at 10 µM,[5]; read-out: inhibition of Trib2-luciferase activity,> 70%
same,Cell viability,"LNCaP-ENR cells; LNCaP-ENR cells, varying doses, 72 hours, MTS/PES",effectively decreased
same,effective concentration in the pre-clinical prostate cancer modeling,LNCaP-ENR cells; target steady state plasma concentration of planned trial,4 µM
